{"source": "ChEMBL document CHEMBL5696442", "about": "“Discovery of type II inhibitors of TGFβ-activated kinase 1 (TAK1) and mitogen-activated protein kinase kinase kinase kinase 2 (MAP4K2)” (J Med Chem, 2015)", "key": {"[1]": {"target": "Serine/threonine-protein kinase Chk2 (Homo sapiens) (UniProt O96017)", "sequence (O96017 whole entry)": "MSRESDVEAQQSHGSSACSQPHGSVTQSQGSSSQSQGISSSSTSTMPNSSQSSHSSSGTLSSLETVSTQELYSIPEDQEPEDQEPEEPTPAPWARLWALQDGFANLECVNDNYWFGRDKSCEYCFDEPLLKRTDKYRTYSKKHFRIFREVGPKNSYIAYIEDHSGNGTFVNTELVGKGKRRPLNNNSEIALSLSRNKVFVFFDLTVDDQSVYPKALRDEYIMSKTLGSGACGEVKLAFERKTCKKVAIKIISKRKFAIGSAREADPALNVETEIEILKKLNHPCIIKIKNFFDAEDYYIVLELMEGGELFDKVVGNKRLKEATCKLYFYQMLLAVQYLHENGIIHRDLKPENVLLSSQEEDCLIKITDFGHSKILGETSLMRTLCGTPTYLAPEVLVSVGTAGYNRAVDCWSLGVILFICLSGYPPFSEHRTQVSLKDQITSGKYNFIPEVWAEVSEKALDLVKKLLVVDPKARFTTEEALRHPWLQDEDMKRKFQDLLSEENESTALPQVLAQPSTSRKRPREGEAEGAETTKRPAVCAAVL", "assay": "Inhibition of CHEK2 (unknown origin) at 10 uM by Ambit Kinomescan binding assay"}, "[2]": {"target": "T1, Mitogen-activated protein kinase kinase kinase 2 (Homo sapiens) (UniProt Q9Y2U5)", "T1 sequence (whole entry)": "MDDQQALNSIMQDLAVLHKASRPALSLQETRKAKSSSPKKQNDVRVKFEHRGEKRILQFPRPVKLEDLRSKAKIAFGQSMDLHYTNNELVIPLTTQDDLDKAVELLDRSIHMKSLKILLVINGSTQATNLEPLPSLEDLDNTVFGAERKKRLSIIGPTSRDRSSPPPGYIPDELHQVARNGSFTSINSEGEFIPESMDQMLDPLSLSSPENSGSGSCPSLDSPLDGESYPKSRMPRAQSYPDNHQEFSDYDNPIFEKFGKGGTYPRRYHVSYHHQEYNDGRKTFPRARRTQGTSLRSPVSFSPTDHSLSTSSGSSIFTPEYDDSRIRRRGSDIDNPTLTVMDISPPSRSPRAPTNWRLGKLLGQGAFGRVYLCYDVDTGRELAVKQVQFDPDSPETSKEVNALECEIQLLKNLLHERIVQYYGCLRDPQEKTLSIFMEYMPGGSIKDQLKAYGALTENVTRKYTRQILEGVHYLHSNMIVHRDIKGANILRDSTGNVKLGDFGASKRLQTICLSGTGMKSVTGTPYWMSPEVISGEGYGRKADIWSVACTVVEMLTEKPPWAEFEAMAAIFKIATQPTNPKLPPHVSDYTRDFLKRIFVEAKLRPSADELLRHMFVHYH", "assay": "Inhibition of MAP3K2 Lys2 labeling site in human A-375 cells at 0.5 uM by KiNativ Profiling analysis relative to control", "assay_type": "cell-based"}, "[3]": {"target": "Serine/threonine-protein kinase MARK2 (Homo sapiens) (UniProt Q7KZI7)", "sequence (Q7KZI7 whole entry)": "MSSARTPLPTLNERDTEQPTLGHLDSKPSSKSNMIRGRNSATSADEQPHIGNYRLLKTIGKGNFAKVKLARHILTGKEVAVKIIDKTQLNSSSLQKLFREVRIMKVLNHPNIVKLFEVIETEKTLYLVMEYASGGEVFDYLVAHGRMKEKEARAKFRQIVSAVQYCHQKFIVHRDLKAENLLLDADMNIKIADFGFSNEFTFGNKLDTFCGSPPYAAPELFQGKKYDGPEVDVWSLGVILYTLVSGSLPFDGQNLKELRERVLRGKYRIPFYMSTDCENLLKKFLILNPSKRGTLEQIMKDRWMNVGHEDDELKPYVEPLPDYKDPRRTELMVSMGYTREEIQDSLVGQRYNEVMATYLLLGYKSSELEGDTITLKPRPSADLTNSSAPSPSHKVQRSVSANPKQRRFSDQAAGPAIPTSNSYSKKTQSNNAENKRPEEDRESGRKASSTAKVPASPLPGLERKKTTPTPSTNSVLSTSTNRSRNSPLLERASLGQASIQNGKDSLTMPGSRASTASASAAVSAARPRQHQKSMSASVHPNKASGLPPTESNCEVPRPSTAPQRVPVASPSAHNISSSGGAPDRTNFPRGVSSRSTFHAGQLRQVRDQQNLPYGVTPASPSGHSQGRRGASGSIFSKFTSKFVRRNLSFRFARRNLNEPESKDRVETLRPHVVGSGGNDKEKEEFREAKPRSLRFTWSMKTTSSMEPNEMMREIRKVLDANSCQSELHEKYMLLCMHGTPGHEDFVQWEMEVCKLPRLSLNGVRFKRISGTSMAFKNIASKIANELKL", "assay": "Inhibition of MARK2 (unknown origin) at 10 uM by Ambit Kinomescan binding assay"}, "[4]": {"target": "Serine/threonine-protein kinase MARK2 (Homo sapiens) (UniProt Q7KZI7)", "assay": "Inhibition of MARK2 Lys2 labeling site harbouring DLKAENLLLDADMNIK in human Huh-7 cells at 1 uM by KiNativ Profiling analysis relative to control", "assay_type": "cell-based"}, "[5]": {"target": "Serine-protein kinase ATM (Homo sapiens) (UniProt Q13315)", "assay": "Inhibition of ATM ATP labeling site in human Huh-7 cell lysate at 1 uM by KiNativ Profiling analysis relative to control", "assay_type": "subcellular"}, "[6]": {"target": "T2, Phosphatidylinositol 5-phosphate 4-kinase type-2 beta (Homo sapiens) (UniProt P78356)", "T2 sequence (whole entry)": "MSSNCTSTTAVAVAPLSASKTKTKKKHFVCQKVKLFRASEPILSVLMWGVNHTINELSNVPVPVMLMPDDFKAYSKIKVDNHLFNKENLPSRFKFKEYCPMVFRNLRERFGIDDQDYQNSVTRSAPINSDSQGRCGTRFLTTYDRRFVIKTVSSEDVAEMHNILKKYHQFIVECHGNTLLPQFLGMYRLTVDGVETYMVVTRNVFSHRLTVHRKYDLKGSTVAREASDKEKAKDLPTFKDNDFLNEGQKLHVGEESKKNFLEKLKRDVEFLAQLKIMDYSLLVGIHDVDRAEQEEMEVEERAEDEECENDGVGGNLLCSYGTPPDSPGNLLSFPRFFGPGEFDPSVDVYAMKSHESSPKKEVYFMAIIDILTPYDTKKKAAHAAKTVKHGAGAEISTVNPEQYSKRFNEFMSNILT", "assay": "Inhibition of PIP4K2B ATP labeling site harbouring TVKHGAGAEISTVNPEQYSK in human Huh-7 cell lysate at 1 uM by KiNativ Profiling analysis relative to control", "assay_type": "subcellular"}, "[7]": {"target": "Serine/threonine-protein kinase MARK2 (Homo sapiens) (UniProt Q7KZI7)", "assay": "Inhibition of MARK2 Lys1 labeling site harbouring HILTGKEVAVKIIDKTQLNSSSLQK in human Huh-7 cells at 1 uM by KiNativ Profiling analysis relative to control", "assay_type": "cell-based"}, "[8]": {"target": "Mitogen-activated protein kinase kinase kinase 1 (Homo sapiens) (UniProt Q13233)", "sequence (Q13233 whole entry)": "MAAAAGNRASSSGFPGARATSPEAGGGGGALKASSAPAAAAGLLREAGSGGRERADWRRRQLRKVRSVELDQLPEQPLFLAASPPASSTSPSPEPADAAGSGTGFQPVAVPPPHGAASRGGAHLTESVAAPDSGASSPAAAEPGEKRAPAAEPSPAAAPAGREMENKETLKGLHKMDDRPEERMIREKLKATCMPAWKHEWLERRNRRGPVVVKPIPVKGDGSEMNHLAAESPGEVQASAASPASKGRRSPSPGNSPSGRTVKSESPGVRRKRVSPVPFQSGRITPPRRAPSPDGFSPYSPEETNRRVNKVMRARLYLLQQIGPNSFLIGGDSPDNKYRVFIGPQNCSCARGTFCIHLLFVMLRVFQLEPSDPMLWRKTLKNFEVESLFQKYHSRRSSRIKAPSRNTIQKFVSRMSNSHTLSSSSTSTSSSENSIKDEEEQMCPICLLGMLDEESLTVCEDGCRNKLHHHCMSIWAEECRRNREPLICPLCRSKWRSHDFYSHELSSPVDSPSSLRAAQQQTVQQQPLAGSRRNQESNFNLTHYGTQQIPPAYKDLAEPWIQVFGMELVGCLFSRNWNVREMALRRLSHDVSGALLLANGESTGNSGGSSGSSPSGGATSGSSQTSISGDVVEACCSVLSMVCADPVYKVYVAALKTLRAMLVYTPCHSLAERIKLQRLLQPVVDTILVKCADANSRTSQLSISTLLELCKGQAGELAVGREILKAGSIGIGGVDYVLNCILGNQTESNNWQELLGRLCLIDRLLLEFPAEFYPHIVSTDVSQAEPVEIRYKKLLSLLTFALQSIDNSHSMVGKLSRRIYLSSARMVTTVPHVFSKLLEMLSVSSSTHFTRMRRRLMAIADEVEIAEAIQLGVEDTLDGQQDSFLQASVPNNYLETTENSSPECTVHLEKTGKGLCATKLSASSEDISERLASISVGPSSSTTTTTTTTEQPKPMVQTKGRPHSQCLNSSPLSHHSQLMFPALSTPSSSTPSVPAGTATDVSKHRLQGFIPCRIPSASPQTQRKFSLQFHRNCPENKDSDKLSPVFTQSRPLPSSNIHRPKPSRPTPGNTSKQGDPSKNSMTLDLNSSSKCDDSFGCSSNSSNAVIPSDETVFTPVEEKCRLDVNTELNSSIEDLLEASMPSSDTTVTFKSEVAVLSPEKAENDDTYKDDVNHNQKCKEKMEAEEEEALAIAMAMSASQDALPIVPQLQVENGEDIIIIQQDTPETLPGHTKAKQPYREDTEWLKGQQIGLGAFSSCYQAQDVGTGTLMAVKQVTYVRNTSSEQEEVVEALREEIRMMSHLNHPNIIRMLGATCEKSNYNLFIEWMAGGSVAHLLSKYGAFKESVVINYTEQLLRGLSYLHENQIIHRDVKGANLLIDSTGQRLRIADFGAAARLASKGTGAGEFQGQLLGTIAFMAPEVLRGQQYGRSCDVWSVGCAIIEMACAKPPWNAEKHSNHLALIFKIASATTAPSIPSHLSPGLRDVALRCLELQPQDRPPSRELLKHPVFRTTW", "assay": "Inhibition of MAP3K1 (unknown origin) at 1 uM by Ambit Kinomescan binding assay relative to control; values are per cent of control"}, "[9]": {"target": "Tyrosine-protein kinase ABL1 (Homo sapiens, UniProt P00519)", "assay": "Inhibition of phosphorylated ABL1 (unknown origin) at 1 uM by Ambit Kinomescan binding assay relative to control; values are per cent of control"}, "[10]": {"target": "Phosphatidylinositol 4-kinase alpha (Homo sapiens) (UniProt P42356)", "sequence (P42356 whole entry, looked up)": "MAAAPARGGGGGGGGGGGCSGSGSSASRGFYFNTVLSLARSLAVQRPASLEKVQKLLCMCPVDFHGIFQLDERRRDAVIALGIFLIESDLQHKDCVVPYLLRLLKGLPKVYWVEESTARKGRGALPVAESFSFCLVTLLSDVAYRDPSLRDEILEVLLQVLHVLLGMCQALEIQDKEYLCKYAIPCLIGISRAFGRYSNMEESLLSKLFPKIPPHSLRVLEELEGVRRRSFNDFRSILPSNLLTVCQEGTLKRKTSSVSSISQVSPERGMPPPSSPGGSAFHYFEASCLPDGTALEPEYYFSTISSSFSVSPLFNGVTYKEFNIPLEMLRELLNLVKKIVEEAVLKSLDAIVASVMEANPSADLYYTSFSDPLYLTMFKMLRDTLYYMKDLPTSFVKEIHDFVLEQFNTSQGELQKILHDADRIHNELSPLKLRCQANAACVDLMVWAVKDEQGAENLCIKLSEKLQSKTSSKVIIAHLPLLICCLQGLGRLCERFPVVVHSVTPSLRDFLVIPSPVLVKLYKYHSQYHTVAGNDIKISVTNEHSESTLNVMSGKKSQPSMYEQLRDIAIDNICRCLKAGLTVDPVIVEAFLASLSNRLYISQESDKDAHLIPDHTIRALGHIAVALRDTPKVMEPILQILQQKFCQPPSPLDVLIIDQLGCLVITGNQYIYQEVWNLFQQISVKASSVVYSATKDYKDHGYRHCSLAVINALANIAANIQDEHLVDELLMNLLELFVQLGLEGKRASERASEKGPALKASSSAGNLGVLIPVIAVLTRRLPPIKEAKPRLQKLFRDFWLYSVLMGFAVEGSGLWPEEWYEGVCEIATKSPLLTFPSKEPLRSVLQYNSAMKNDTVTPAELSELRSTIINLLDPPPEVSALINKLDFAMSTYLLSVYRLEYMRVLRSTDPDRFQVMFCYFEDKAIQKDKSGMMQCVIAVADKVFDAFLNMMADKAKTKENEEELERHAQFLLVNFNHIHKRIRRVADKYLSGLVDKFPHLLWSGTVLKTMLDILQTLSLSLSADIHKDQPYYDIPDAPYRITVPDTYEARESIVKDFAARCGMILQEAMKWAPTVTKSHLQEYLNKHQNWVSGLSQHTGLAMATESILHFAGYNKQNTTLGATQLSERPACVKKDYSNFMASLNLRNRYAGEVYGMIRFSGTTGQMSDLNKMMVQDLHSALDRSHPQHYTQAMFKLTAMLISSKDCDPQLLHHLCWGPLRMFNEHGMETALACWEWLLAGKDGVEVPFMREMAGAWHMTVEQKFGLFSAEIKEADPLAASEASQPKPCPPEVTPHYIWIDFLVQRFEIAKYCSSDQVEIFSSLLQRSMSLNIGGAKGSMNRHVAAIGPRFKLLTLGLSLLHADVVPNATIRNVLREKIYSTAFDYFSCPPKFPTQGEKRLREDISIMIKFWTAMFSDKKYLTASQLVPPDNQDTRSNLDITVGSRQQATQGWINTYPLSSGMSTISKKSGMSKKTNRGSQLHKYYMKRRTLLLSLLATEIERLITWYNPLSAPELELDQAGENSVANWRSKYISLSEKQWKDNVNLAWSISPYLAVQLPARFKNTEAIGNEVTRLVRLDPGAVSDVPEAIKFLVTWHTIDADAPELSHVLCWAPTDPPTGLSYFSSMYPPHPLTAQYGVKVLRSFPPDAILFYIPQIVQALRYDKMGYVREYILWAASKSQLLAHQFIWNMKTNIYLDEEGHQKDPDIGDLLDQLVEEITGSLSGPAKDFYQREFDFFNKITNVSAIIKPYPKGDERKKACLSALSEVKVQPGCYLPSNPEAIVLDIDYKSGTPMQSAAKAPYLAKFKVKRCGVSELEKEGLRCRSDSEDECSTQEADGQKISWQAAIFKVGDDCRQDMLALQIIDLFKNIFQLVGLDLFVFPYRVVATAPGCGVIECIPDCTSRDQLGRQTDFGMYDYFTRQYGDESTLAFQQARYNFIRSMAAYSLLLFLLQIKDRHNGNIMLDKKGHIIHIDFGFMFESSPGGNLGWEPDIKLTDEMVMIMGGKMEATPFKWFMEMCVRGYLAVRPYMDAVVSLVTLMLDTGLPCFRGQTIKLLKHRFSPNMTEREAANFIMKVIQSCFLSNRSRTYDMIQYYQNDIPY", "assay": "Inhibition of PI4KA ATP labeling site in human A-375 cells at 0.5 uM by KiNativ Profiling analysis relative to control", "assay_type": "cell-based"}, "[11]": {"target": "T3, Serine/threonine-protein kinase Chk1 (Homo sapiens) (UniProt O14757)", "T3 sequence (whole entry)": "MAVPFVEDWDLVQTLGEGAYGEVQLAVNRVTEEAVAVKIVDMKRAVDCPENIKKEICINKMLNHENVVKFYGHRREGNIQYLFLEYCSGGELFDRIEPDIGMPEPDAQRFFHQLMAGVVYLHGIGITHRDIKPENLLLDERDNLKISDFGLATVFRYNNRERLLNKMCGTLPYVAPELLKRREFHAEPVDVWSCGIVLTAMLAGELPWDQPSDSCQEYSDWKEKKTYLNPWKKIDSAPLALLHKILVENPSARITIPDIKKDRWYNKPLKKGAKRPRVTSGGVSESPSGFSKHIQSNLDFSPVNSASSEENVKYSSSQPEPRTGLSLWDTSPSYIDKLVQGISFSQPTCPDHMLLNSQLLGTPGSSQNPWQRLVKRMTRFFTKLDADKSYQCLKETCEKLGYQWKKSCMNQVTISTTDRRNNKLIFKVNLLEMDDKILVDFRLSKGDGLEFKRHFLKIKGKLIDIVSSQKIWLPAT", "assay": "Inhibition of CHEK1 (unknown origin) at 1 uM by Ambit Kinomescan binding assay relative to control"}, "[12]": {"tested_on": "Tyrosine-protein kinase ABL1 (Homo sapiens), P00519 [F317I]", "assay": "Inhibition of nonphosphorylated ABL1 F317I mutant (unknown origin) at 1 uM by Ambit Kinomescan binding assay relative to control"}}, "note": "Active and inactive are the calls of the source. The rule behind the calls is not given here."}
{"compound": "CCN1CCN(Cc2ccc(NC(=O)c3ccc(C)c(Oc4ccnc5[nH]ccc45)c3)cc2C(F)(F)F)CC1", "values": [{"measurement": "inhibition", "setting": "[1]", "value": "inactive"}, {"measurement": "inhibition", "setting": "[2]", "value": 2.8, "unit": "%"}, {"measurement": "inhibition", "setting": "[3]", "value": "inactive"}]}
{"compound": "CNc1cc(Oc2cc(C(=O)Nc3cc(N4CCN(C)CC4)cc(C(F)(F)F)c3)ccc2C)ncn1", "values": [{"measurement": "inhibition", "setting": "[4]", "value": 19.4, "unit": "%"}, {"measurement": "inhibition", "setting": "[5]", "value": 4.8, "unit": "%"}, {"measurement": "inhibition", "setting": "[6]", "value": -5.4, "unit": "%"}, {"measurement": "inhibition", "setting": "[7]", "value": -0.2, "unit": "%"}]}
{"compound": "CCN1CCN(Cc2ccc(NC(=O)c3ccc(C)c(/C=C/c4cnc5[nH]ccc5c4OC)c3)cc2C(F)(F)F)CC1", "values": [{"measurement": "residual activity", "setting": "[8]", "value": 100, "unit": "%"}, {"measurement": "% of control", "setting": "[9]", "value": 0.7, "unit": "%"}, {"measurement": "inhibition", "setting": "[10]", "value": -8, "unit": "%"}, {"measurement": "inhibition", "setting": "[11]", "value": 100, "unit": "%"}, {"measurement": "inhibition", "setting": "[12]", "value": 19, "unit": "%"}]}
